Drawing on ChEMBL document CHEMBL1154642, “Synthesis and biological evaluation of heterocyclic ring-substituted maslinic acid derivatives as novel inhibitors of protein tyrosine phosphatase 1B” (Bioorg Med Chem Lett, 2009), this text covers Ratio IC50 and IC50 for 19 molecules.

Where only a bound is given, the exact number is not on record here.

For one assay, the species on record is Homo sapiens. Kind of assay: Selectivity, ratio of IC50 for GST-tagged human TCPTP to IC50 for GST-tagged human PTP 1B.
In assay [1] the target is T1, Tyrosine-protein phosphatase non-receptor type 11 (Homo sapiens, UniProt Q06124).
T1 sequence (Q06124 whole entry): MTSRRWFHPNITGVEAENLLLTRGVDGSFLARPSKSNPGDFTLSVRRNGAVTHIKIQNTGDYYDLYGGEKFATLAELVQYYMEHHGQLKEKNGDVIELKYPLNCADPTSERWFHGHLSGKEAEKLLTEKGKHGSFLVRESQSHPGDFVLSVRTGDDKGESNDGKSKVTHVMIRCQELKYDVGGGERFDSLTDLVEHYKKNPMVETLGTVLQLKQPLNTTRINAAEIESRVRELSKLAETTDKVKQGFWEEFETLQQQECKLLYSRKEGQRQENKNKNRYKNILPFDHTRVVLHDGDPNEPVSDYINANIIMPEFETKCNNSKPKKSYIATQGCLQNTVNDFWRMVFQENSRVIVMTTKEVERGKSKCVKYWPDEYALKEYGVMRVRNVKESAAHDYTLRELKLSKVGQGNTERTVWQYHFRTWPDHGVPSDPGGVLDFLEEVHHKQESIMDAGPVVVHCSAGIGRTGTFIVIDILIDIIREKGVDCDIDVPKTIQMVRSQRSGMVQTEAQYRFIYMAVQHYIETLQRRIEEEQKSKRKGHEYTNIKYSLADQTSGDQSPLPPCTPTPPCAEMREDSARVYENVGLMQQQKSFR
Briefly: Inhibition of GST-tagged human SHP2.

Assay [2] addresses Tyrosine-protein phosphatase non-receptor type 6 (Homo sapiens, UniProt P29350). Kind of assay: Inhibition of GST-tagged human SHP1.
Assay [3] has as its target T2, Tyrosine-protein phosphatase non-receptor type 2 (Homo sapiens, UniProt P17706).
T2 sequence (P17706 whole entry): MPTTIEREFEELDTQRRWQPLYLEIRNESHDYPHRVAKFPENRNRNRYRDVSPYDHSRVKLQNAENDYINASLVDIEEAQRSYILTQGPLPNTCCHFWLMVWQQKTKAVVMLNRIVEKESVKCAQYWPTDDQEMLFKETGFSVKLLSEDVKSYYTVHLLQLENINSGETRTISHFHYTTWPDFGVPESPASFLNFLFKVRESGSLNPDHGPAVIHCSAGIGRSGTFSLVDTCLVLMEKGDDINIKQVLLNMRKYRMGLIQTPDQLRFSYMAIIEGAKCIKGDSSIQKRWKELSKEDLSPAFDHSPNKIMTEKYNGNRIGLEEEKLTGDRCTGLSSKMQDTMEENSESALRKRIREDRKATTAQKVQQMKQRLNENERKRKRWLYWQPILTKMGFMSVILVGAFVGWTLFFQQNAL
Kind of assay: Inhibition of GST-tagged human TCPTP.

The target in assay [4] is T3, Tyrosine-protein phosphatase non-receptor type 1 (Homo sapiens, UniProt P18031).
T3 sequence (P18031 whole entry): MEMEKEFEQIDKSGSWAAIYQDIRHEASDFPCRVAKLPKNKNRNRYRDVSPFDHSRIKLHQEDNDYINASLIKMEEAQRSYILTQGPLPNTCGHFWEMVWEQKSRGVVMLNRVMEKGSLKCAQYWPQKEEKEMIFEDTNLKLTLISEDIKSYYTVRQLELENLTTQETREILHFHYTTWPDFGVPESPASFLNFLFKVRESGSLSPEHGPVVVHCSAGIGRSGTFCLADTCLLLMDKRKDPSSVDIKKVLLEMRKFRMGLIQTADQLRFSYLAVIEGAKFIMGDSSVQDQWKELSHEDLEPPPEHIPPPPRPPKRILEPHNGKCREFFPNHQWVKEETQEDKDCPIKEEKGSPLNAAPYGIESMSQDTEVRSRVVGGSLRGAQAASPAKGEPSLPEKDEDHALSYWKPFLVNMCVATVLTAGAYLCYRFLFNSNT
Kind of assay: Inhibition of GST-tagged human PTP 1B.

Assay [5] concerns the target Receptor-type tyrosine-protein phosphatase F (Homo sapiens, UniProt P10586). Briefly: Inhibition of GST-tagged human LAR.
The nature of assay [6]: Inhibition of glycogen phosphorylase.

Chain of Receptor-type tyrosine-protein phosphatase F (P10586 whole entry): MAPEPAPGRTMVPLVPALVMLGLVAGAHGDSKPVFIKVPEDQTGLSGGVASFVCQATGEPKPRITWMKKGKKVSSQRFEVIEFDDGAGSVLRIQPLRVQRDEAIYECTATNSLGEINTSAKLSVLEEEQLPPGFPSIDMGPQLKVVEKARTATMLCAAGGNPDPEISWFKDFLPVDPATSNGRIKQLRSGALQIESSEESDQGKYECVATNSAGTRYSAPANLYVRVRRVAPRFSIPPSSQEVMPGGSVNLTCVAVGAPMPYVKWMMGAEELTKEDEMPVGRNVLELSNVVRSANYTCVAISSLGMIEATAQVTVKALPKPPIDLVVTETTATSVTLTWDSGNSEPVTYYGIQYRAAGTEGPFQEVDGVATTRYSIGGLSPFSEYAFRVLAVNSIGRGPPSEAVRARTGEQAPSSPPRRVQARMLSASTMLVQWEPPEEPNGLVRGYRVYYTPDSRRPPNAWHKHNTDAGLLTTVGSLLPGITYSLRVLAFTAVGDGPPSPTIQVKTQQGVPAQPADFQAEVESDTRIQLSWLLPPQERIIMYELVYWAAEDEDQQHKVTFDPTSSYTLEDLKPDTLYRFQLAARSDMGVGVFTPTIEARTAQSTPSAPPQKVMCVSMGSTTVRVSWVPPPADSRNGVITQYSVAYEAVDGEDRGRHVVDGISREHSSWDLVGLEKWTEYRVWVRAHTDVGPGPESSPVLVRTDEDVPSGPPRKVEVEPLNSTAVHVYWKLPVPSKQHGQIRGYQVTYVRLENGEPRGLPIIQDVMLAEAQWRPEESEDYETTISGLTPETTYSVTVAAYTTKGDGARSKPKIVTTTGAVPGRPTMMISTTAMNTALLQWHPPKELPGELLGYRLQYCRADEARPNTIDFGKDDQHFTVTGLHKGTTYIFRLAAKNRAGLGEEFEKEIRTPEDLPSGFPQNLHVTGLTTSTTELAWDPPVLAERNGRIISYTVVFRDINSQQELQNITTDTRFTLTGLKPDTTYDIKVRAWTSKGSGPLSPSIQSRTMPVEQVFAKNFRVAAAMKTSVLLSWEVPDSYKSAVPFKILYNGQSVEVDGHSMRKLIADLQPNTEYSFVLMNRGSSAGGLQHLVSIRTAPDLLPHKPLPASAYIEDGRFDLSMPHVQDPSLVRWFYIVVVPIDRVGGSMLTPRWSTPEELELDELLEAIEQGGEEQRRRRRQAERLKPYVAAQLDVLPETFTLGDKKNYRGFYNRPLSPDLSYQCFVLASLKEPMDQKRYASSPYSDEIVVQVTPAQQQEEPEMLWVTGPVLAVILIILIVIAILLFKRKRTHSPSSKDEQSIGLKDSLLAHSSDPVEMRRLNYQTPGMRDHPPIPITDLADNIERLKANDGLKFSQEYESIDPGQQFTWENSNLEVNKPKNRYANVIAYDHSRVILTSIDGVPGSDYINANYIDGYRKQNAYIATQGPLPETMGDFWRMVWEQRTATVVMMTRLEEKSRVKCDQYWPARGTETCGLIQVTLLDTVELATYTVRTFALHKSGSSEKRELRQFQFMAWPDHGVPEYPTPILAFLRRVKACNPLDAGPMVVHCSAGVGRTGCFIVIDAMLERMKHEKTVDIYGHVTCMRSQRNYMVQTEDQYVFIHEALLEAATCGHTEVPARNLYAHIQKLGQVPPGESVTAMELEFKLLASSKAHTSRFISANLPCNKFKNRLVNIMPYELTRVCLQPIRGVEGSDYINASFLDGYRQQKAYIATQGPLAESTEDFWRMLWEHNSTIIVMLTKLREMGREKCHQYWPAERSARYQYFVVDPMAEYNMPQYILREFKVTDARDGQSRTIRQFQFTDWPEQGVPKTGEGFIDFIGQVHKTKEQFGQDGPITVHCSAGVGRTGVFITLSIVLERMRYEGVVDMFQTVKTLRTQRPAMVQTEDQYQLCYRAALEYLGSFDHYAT
Chain of Tyrosine-protein phosphatase non-receptor type 6 (P29350 whole entry): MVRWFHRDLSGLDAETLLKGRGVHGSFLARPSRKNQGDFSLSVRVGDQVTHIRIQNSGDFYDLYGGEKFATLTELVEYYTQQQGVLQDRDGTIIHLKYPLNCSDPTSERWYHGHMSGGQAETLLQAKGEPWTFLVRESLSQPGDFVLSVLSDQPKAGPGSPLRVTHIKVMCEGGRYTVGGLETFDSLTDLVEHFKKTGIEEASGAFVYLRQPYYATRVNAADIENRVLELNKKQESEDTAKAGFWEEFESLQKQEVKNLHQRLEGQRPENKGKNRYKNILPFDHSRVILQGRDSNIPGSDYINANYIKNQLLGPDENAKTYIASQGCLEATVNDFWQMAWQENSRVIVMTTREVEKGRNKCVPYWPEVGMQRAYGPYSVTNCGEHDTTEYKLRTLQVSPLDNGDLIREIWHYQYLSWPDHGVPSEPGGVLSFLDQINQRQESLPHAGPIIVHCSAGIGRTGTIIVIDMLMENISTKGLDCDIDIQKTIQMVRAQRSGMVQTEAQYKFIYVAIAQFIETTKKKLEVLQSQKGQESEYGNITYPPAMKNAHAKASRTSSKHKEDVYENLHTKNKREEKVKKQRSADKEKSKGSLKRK

In general, IC50 refers to the point on the concentration scale where inhibition reaches its midpoint. Turning to `CC1(C)CC[C@]2(C(=O)O)CC[C@]3(C)C(=CC[C@@H]4[C@@]5(C)Cc6cncnc6C(C)(C)[C@@H]5CC[C@]43C)[C@@H]2C1`, the Ratio IC50 in the assay listed under Homo sapiens stood at 3. The IC50 in assay [1] was greater than 40 µM; in assay [2], greater than 40 µM; in assay [3], 8.19 µM; in assay [4], 2.73 µM; in assay [5], greater than 40 µM.

As to `CC1(C)CC[C@]2(C(=O)O)CC[C@]3(C)C(=CC[C@@H]4[C@@]5(C)Cc6cnn(C(=O)c7ccncc7)c6C(C)(C)[C@@H]5CC[C@]43C)[C@@H]2C1`, the Ratio IC50 in the assay listed under Homo sapiens is 4.5. For the same molecule, the values for the IC50 in assay [3] and in assay [4] were 3.62 µM and 0.81 µM, respectively.

Consider `CCCCCC(=O)n1ncc2c1C(C)(C)[C@@H]1CC[C@]3(C)[C@H](CC=C4[C@@H]5CC(C)(C)CC[C@]5(C(=O)O)CC[C@]43C)[C@@]1(C)C2`, for which the Ratio IC50 in the assay listed under Homo sapiens was determined as 3.2. Further, the IC50 in assay [3] came out at 5.56 µM; in assay [4], 1.75 µM.

`CC1(C)CC[C@]2(C(=O)O)CC[C@]3(C)C(=CC[C@@H]4[C@@]5(C)Cc6sc(N)nc6C(C)(C)[C@@H]5CC[C@]43C)[C@@H]2C1`: the Ratio IC50 in the assay listed under Homo sapiens turned out to be 3.4. Also, the IC50 was greater than 40 µM in assay [1]; greater than 40 µM in assay [2]; 6.44 µM in assay [3]; 1.92 µM in assay [4]; greater than 40 µM in assay [5].

As for `CC1(C)CC[C@]2(C(=O)O)CC[C@]3(C)C(=CC[C@@H]4[C@@]5(C)Cc6cnn(-c7ccccc7)c6C(C)(C)[C@@H]5CC[C@]43C)[C@@H]2C1`, the Ratio IC50 in the assay listed under Homo sapiens was found to be 2.7. In addition, the IC50 in assay [1] was greater than 40 µM; in assay [2], greater than 40 µM; in assay [3] it was 3.8 µM; in assay [4] it was 1.39 µM; in assay [5], greater than 40 µM.

For the molecule `CC1(C)CC[C@]2(C(=O)O)CC[C@]3(C)C(=CC[C@@H]4[C@@]5(C)C[C@@H](O)[C@@H](O)C(C)(C)[C@@H]5CC[C@]43C)[C@@H]2C1`, in assay [4], the IC50 came out at 14.3 µM.

Turning to `CC1(C)CC[C@]2(C(=O)O)CC[C@]3(C)C(=CC[C@@H]4[C@@]5(C)Cc6c([nH]c7ccccc67)C(C)(C)[C@@H]5CC[C@]43C)[C@@H]2C1`, in the assay listed under Homo sapiens, the Ratio IC50 was determined as 2.6. Further, the IC50 in assay [3] stood at 1.6 µM; in assay [4], 0.61 µM.

For `CC1(C)CC[C@]2(C(=O)O)CC[C@]3(C)C(=CC[C@@H]4[C@@]5(C)C[C@@H](O)[C@H](O)C(C)(C)[C@@H]5CC[C@]43C)[C@@H]2C1` [MASLINIC ACID], in the assay filed under Homo sapiens, the Ratio IC50 was determined as 3.3. The IC50 was greater than 40 µM in assay [1]; greater than 40 µM in assay [2]; 19.5 µM in assay [3]; 5.93 µM in assay [4]; greater than 40 µM in assay [5]; 28 µM in assay [6].

On to `CC1(C)CC[C@]2(C(=O)O)CC[C@]3(C)C(=CC[C@@H]4[C@@]5(C)Cc6nccnc6C(C)(C)[C@@H]5CC[C@]43C)[C@@H]2C1`, for which the Ratio IC50 in the assay listed under Homo sapiens was 4.6. Besides, the IC50 in assay [1] is greater than 40 µM; in assay [2], greater than 40 µM; in assay [3], 8.31 µM; in assay [4], 1.79 µM; in assay [5], greater than 40 µM.

As for `CC1(C)CC[C@]2(C(=O)O)CC[C@]3(C)C(=CC[C@@H]4[C@@]5(C)Cc6cn[nH]c6C(C)(C)[C@@H]5CC[C@]43C)[C@@H]2C1`, the Ratio IC50 in the assay listed under Homo sapiens came to 3.6. Moreover, the IC50 in assay [1] is greater than 40 µM; in assay [2], greater than 40 µM; in assay [3], 5.99 µM; in assay [4] it was 1.65 µM; in assay [5], greater than 40 µM.

`CC1(C)CC[C@]2(C(=O)O)CC[C@]3(C)C(=CC[C@@H]4[C@@]5(C)C[C@H](O)[C@H](O)C(C)(C)[C@@H]5CC[C@]43C)[C@@H]2C1` [AUGUSTIC ACID]: in assay [4], the IC50 was 4.93 µM.

Take `Cc1ncc2c(n1)C(C)(C)[C@@H]1CC[C@]3(C)[C@H](CC=C4[C@@H]5CC(C)(C)CC[C@]5(C(=O)O)CC[C@]43C)[C@@]1(C)C2`: in the assay filed under Homo sapiens, the Ratio IC50 is 2.5. Further, the IC50 in assay [3] was 6.5 µM; in assay [4] it was 2.61 µM.

As for `CC(=O)n1ncc2c1C(C)(C)[C@@H]1CC[C@]3(C)[C@H](CC=C4[C@@H]5CC(C)(C)CC[C@]5(C(=O)O)CC[C@]43C)[C@@]1(C)C2`, in the assay filed under Homo sapiens, the Ratio IC50 amounted to 3.3. Besides, the results for the IC50 in assay [3] and in assay [4] were 4.93 µM and 1.48 µM, respectively.

For `CNc1ncc2c(n1)C(C)(C)[C@@H]1CC[C@]3(C)[C@H](CC=C4[C@@H]5CC(C)(C)CC[C@]5(C(=O)O)CC[C@]43C)[C@@]1(C)C2`, the IC50 in assay [4] was 5.44 µM.

As for `CC1(C)CC[C@]2(C(=O)O)CC[C@]3(C)C(=CC[C@@H]4[C@@]5(C)Cc6cnc(N)nc6C(C)(C)[C@@H]5CC[C@]43C)[C@@H]2C1`, the Ratio IC50 in the assay filed under Homo sapiens is 3.1. For the same molecule, the figures for the half-maximal inhibitory concentration (IC50) in assay [3] and in assay [4] were 5.51 µM and 1.78 µM, respectively.

In the case of `CC1(C)CC[C@]2(C(=O)O)CC[C@]3(C)C(=CC[C@@H]4[C@@]5(C)Cc6cnn(C(=O)c7cccnc7)c6C(C)(C)[C@@H]5CC[C@]43C)[C@@H]2C1`, the Ratio IC50 in the assay listed under Homo sapiens turned out to be 6.9. In addition, the values for the IC50 in assay [3] and in assay [4] were 4.39 µM and 0.64 µM, respectively.

For `O=C(O)C(=O)c1ccc(OCc2ccc(COc3ccc(C(=O)C(=O)O)cc3)cc2)cc1`, the Ratio IC50 in the assay filed under Homo sapiens was 1.6. Further, the figures for the IC50 in assay [3] and in assay [4] were 6.24 µM and 3.89 µM, respectively.

For the molecule `CC1(C)CC[C@]2(C(=O)O)CC[C@]3(C)C(=CC[C@@H]4[C@@]5(C)Cc6nc7ccccc7nc6C(C)(C)[C@@H]5CC[C@]43C)[C@@H]2C1`, the Ratio IC50 in the assay filed under Homo sapiens was 4.1. The IC50 in assay [1] was greater than 40 µM; in assay [2], greater than 40 µM; in assay [3], 5.88 µM; in assay [4], 1.43 µM; in assay [5], greater than 40 µM.

For `CC1(C)CC[C@]2(C(=O)O)CC[C@]3(C)C(=CC[C@@H]4[C@@]5(C)Cc6cnoc6C(C)(C)[C@@H]5CC[C@]43C)[C@@H]2C1`, the Ratio IC50 in the assay listed under Homo sapiens amounted to 3.3. Moreover, the IC50 was greater than 40 µM in assay [1]; greater than 40 µM in assay [2]; 8.44 µM in assay [3]; 2.6 µM in assay [4]; greater than 40 µM in assay [5].
